One data set deals with T1, purified HHAT (Homo sapiens, UniProt Q5VTY9).
T1 construct: made in house
Description: Acyl-cLIP assay, inhibition of purified HHAT. The class given is biochemical. The following applies: for fold increase in potency compared to racemate: enantiomer vs racemate (29 vs 21, 30 vs 24, 43 vs 39); for LLEAcyl-cLIP: from Acyl-cLIP IC50 and clogDpH7.4; for IC50: purified HHAT, read-out: Acyl-cLIP Assay IC50 (CI95). On the procedure: The inhibitory potency of all 50 compounds against purified HHAT was quantified using the acylation-coupled lipophilic induction of polarization (acyl-cLIP) assay recently developed in our lab, a universally applicable assay for high-throughput analysis of protein–lipid transferases and hydrolases.[31],[40] In brief, in this assay a fluorescently labeled peptide based on the N-terminal sequence of SHH is incubated with N-dodecyl β-D-maltoside (DDM) solubilized purified HHAT, palmitoyl-CoA, and HHAT inhibitors. Binding of the lipidated peptide product to the DDM micelle results in decreased tumbling rate and an increase in polarization of fluorescence emission, enabling facile quantification of HHAT activity. Initially, % HHAT inhibition was determined at 50 μM and 25 μM for all analogues. […] HHAT is a 12-pass TM protein,[14] and we considered whether lipophilicity might bias inhibition; pIC50 values were compared to calculated log D, which indicated no significant correlation (SI, Table S1 and Figure S2). We concluded that lipophilicity is not a general driver of HHAT inhibitory potency.
The acyl-cLIP assay has been described previously.[40] Briefly, SHH-FAM peptide was diluted in buffer A (100 mM MES, 20 mM NaCl, 1 mM DTT, 1 mM TCEP, 0.1% BSA, pH 6.5) to a concentration of 2 μM. Palmitoyl-CoA (Sigma-Aldrich) was diluted in buffer A to 7.5 μM and recombinant HHAT (obtained by following the published protocol[14]) in buffer B (20 mM HEPES, 350 mM NaCl, 1% DDM, 5% glycerol, pH 7.3) diluted to 44 μg/mL. 1.5 μL of a 50 mM inhibitor DMSO stock was diluted with 18.5 μL of DMSO and further serial diluted (1:1). For each condition, 6 μL of the HHAT working stock and […] of the SHH-peptide working stock were mixed with 3 μL of the corresponding inhibitor concentration or DMSO vehicle. Twelve μL/well of this mixture was split into four wells of a black 384 well plate. To start the reaction, 8 μL of the Pal-CoA working stock were added to each well and fluorescence anisotropy and the total fluorescence recorded on an EnVision Xcite 2104 (PerkinElmer) over 30 min (emission filter 1 = FITC FP P-pol 535; emission filter 2 = FITC S-pol 535; excitation filter: FITC FP 480; measurement height = 6.5 mm; detector gain = 0; high concentration gain). Initial rate constants were determined by linear regression and normalized to DMSO control and samples with buffer B instead of HHAT. IC50 values were extracted from the corresponding dose response curves using a “sigmoidal dose response (variable slope)” model in GraphPad Prism 5 (GraphPad Software, Inc.).

Data set [1] deals with HH signaling (HEK293a SHH+ conditioned media on SHH-Light2 cells). The data set is described as follows: Light2 dual-luciferase cell-based HH signaling assay (Firefly). The following applies: Firefly luciferase, Light2 cells; read-out: HH signaling inhibition EC50 (CI95). On the procedure: Subsequently, the effect of analogues on HH signaling was investigated using a cellular luciferase reporter assay. Light2 cells derived from NIH3T3 cells constitutively express Renilla luciferase as an internal control for cell density alongside Firefly luciferase under the control of a HH-responsive Gli promoter.[43] HEK293a SHH^+ cells were incubated with varying inhibitor concentrations and SHH-containing conditioned media transferred to the NIH3T3-Light2 cells to mimic paracrine signaling[30],[35] (Figure 6A).
The Light2 cell-based signaling assay has been described previously.[35] Briefly, HEK293a SHH^+ cells were plated at 120,000 cells/well of a 12-well plate in a volume of 1 mL/well and cultured as described above. After 24 h, cells were washed with PBS, followed by addition of 1 mL of media containing 0.2% DMSO or varying inhibitor concentrations in DMSO (0.041–30 μM final). Additionally, SHH-Light2 cells were plated at 20,000 cells/well of a 96-well plate in 50 μL media. After another 24 h, 300 μL of the conditioned media were collected from each well of the treated HEK293a SHH^+ cells, centrifuged at 1000g for 10 min to remove detached cells and split into three wells of the SHH-Light2 cells (100 μL/well; 150 μL final volume in each well). The treated Light2 cells were cultured for another 48 h and subsequently washed with PBS. Firefly and Renilla luciferase activity was measured using the Dual-Luciferase reporter system (Promega Corporation, USA). Then 20 μL of 1× passive lysis buffer were added to each well. After 30 min at RT, 5 μL of each lysate were transferred to a white opaque 96-well plate. Then 20 μL/well of luciferase assay reagent II was added and the luminescence immediately recorded using a SpectraMax i3x plate reader (Molecular Devices LLC). Subsequently, 20 μL/well of 1× Stop&Glo substrate in Stop&Glo buffer was added and the luminescence immediately recorded for a second time. Data was evaluated using a “sigmoidal dose response (variable slope)” model in GraphPad Prism 5 (GraphPad Software, Inc.). The luminescence signal of the Firefly luciferase was normalized to the DMSO vehicle (100%) and the unconditioned media (0%) controls.

The test system of the next data set is HEK293a SHH+ cells. The data set is described as follows: MTS assay, cytotoxicity (72 h). The note with it: for decrease in cell viability / cell survival: 12.5 μM; for CC50: 72 h, read-out: MTS Assay (HEK293a SHH+) CC50 (CI95). The class given is cell-based. On the procedure:
(§1) The survival of HEK293a SHH^+ cells is independent of HH signaling,[35] therefore, the cytotoxicity of analogues was tested using the MTS assay to investigate off-target toxicity. In this assay, HEK293a SHH^+ cells were treated with DMSO vehicle or varying concentrations of analogues for 72 h. Subsequently, a mixture of 1-methoxy phenazine methosulfate (PMS) and [3-(4,5-dimethylthiazol-2-yl)-5-(3-carboxymethoxyphenyl)-2-(4-sulfophenyl)-2H-tetrazolium] (MTS) was added to enable quantification of cell number via colorimetric analysis. […] Compounds 3, 17, 19, 32, 34, 38, and 45, which all contain a 2-((2-methylbutyl)amino)acetyl, were toxic to HEK293a SHH^+ cells, as were ureas 26, 40, and 41.
(§2) HEK293a SHH^+ cells were plated at 5000 cells/well in a 96-well plate (Nunc) using a volume of 50 μL/well and cultured for 24 h as described. Cells were treated with 100 μL/well of either DMSO vehicle, Puromycin (2 μg/mL), or stated analogues (0.14–100 μM final) in DMEM supplemented with 10% FBS. After 72 h, 20 μL/well of a mixture of 1-methoxy phenazine methosulfate (PMS) and [3-(4,5-dimethylthiazol-2-yl)-5-(3-carboxymethoxyphenyl)-2-(4-sulfophenyl)-2H-tetrazolium] (MTS) at a ratio of MTS/PMS = 2/0.92 mg/mL in PBS was added and the plates were incubated for 3 h at 37 °C. Subsequently, the absorption at 490 nm was recorded using an EnVision Xcite 2104 (PerkinElmer), and the response was normalized to vehicle control and Puromycin treated samples. Dose response curves were fitted to a “sigmoidal dose response (variable slope)” model using GraphPad Prism 5 (GraphPad Software, Inc.).
(In general: Formazan colour is commonly taken as a measure of viable cells.)

The nature of data set [2]: MTS assay, cytotoxicity (72 h). The class given is cell-based. The following applies: human, HEK293a SHH+ cells, 72 h; for CC50 at 72 h: read-out: MTS Assay (HEK293a SHH+) CC50 (CI95). On the procedure:
as §1, §2

Structures are written as SMILES.

T1 sequence (Q5VTY9 whole entry): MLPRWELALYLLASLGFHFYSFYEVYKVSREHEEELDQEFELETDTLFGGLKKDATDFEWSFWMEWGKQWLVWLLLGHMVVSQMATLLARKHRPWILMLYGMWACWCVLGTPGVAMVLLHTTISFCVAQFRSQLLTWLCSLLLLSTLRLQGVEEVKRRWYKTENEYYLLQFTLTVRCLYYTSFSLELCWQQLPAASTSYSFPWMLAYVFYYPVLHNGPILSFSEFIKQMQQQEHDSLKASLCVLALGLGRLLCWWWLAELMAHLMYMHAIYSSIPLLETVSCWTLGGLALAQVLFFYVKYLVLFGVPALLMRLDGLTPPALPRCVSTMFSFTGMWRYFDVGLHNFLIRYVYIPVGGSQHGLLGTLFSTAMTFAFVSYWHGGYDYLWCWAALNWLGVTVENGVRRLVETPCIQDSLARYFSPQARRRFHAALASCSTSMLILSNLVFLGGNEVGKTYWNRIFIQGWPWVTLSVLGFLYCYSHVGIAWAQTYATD

For `CC(C)CNCC(=O)N1CCc2ccccc2C1c1ccccc1` (stereo in doubt) [Compound 43, (R)-2-((2-Methylpropyl)amino)-1-(1-phenyl-3,4-dihydroisoquinolin-2(1H)-yl)ethan-1-one], on purified HHAT, the inhibition (commonly the drop in the measured response relative to a control, in per cent) at 25 µM was determined as 88 ± 3%; testing at 50 µM gave an inhibition of 93 ± 3%; the “fold increase in potency compared to racemate” value is 2 fold; the LLEAcyl-cLIP was determined as 3.64. Further, on purified HHAT, the IC50 (in general, the point on the concentration scale where inhibition reaches its midpoint) was found to be 2.77 µM. The EC50 (commonly the concentration at which the effect is half-maximal) in data set [1] was determined as 0.8 µM. Moreover, in the data set on HEK293a SHH+ cells, the “decrease in cell viability / cell survival” value was less than 30% and the CC50 (usually the concentration at which the toxic effect on the cells reaches its halfway point) was greater than 100 µM. For the same molecule, in data set [2], the cytotoxic concentration (CC50) at 72 h was greater than 50 µM; the viability (usually a read-out of living cells in per cent, often relative to untreated cells) at 72 h, 12.5 µM worked out at 98 ± 2%; the viability at 72 h, 25 µM was found to be 97 ± 3%.

For `C=CCNCC(=O)N1CCc2sccc2C1c1ccccc1` (stereo not shown) [Compound 12, 2-(Allylamino)-1-(4-phenyl-6,7-dihydrothieno[3,2-c]pyridin-5(4H)-yl)ethan-1-one], at purified HHAT, the inhibition at 25 µM came to 68 ± 5%, testing at 50 µM gave an inhibition of 83 ± 1%, the LLEAcyl-cLIP is given as 2.94 and the IC50 was 6.55 µM. Moreover, the concentration for a half-maximal effect (EC50) in data set [1] stood at 2.92 µM. The “decrease in cell viability / cell survival” value in the data set with HEK293a SHH+ cells was less than 30%. Besides, in data set [2], the CC50 at 72 h is greater than 50 µM; the viability at 72 h, 12.5 µM turned out to be 86 ± 2%; the viability at 72 h, 25 µM came to 73 ± 2%.

Take `C=CC(=O)N1CCc2sccc2C1c1cccc(C)c1` (stereo not shown) [Compound 16]: at purified HHAT, the inhibition at 25 µM worked out at 51 ± 7%, the inhibition at 50 µM stood at 62 ± 8%, the LLEAcyl-cLIP was found to be 0.66 and the IC50 came out at 15 µM. For the same molecule, the EC50 in data set [1] was 2.96 µM. Also, in data set [2], the CC50 at 72 h stood at 19.8 µM; the viability at 72 h, 12.5 µM stood at 51 ± 1%; the viability at 72 h, 25 µM was determined as 34 ± 3%.

As to `CCC(C)CNCC(=O)N1CCc2sccc2C1c1ccccn1` (stereo not shown) [Compound 19, 2-(2-Methylbutylamino)-1-[4-(pyridin-2-yl)-6,7-dihydro-4H-thieno[3,2-c]pyridin-5-yl]ethanone], on purified HHAT, testing at 25 µM gave an inhibition of 81 ± 1%, at 50 µM the inhibition was 91 ± 1%, the LLEAcyl-cLIP amounted to 3.84 and the IC50 was 7.98 µM. Further, the EC50 in data set [1] stood at 0.58 µM. Besides, in the data set with HEK293a SHH+ cells, the “toxicity to HEK293a SHH+ cells” value is on record as “toxic” and the “decrease in cell viability / cell survival” value was less than 30%. In addition, in data set [2], the CC50 at 72 h is 20.3 µM; the viability at 72 h, 12.5 µM worked out at 87 ± 1%; the viability at 72 h, 25 µM was 75 ± 4%.

For the molecule `CC(=O)N1CCc2sccc2C1c1cccc(C)n1` (stereo not shown) [Compound 21], on purified HHAT, the inhibition at 25 µM came out at 72 ± 3%, the inhibition at 50 µM came to 82 ± 3%, the LLEAcyl-cLIP is 2.84 and the IC50 was determined as 13.4 µM. Further, the concentration giving a half-maximal response (EC50) in data set [1] is 5.46 µM. For the same molecule, in data set [2], the 50% cytotoxic concentration (CC50) at 72 h is greater than 100 µM; the viability at 72 h, 12.5 µM is 98 ± 4%; the viability at 72 h, 25 µM was found to be 94 ± 3%.

On to `CC[C@H](C)CNCC(=O)N1CCc2sccc2C1c1cccc(C)n1` (stereo partly shown) [Compound 23], for which, on purified HHAT, 25 µM produced 87 ± 7% inhibition, at 50 µM the inhibition was 86 ± 8%, the LLEAcyl-cLIP turned out to be 4.04 and the IC50 came to 3.71 µM. Besides, the EC50 in data set [1] is 1.58 µM. Further, in the data set on HEK293a SHH+ cells, the cytotoxic concentration (CC50) is greater than 100 µM. Further, in data set [2], the CC50 at 72 h is greater than 50 µM; the viability at 72 h, 12.5 µM came to 87 ± 2%; the viability at 72 h, 25 µM is 74 ± 3%.

Take `Cc1cccc(C2c3ccsc3CCN2C(=O)CNCCC(C)C)n1` (stereo not shown) [Compound 25]: on purified HHAT, the inhibition at 25 µM amounted to 80 ± 5%, testing at 50 µM gave an inhibition of 86 ± 4%, the LLEAcyl-cLIP is recorded as 3.90 and the IC50 was 4.62 µM. Further, the EC50 in data set [1] came to 4.25 µM. In data set [2], the CC50 at 72 h is 15.3 µM; the viability at 72 h, 12.5 µM amounted to 74 ± 2%; the viability at 72 h, 25 µM came out at 27 ± 4%.

Turning to `CC(=O)N1CCc2sccc2[C@@H]1c1cccc(C)n1` [Compound 29, (R)-1-(4-(6-Methylpyridin-2-yl)-6,7-dihydrothieno[3,2-c]pyridin-5(4H)-yl)ethan-1-one], at purified HHAT, the inhibition at 25 µM was 76 ± 2%, the inhibition at 50 µM was determined as 86 ± 2%, the “fold increase in potency compared to racemate” value is given as 2 fold and the LLEAcyl-cLIP is recorded as 3.10. Further, at purified HHAT, the IC50 turned out to be 7.45 µM. Also, the EC50 in data set [1] was determined as 1.29 µM. Further, in the data set on HEK293a SHH+ cells, the “decrease in cell viability / cell survival” value is reported as less than 30% and the CC50 is greater than 100 µM. In data set [2], the CC50 at 72 h was greater than 50 µM; the viability at 72 h, 12.5 µM was determined as 92 ± 3%; the viability at 72 h, 25 µM turned out to be 88 ± 5%.

With `COc1ccccc1C1c2ccsc2CCN1C(C)=O` (stereo not shown) [Compound 31], at purified HHAT, the inhibition at 25 µM was 68 ± 4%, testing at 50 µM gave an inhibition of 81 ± 2%, the LLEAcyl-cLIP is 2.21 and the IC50 turned out to be 11.9 µM. Moreover, the EC50 in data set [1] was greater than 30 µM. Moreover, in data set [2], the 50% cytotoxic concentration (CC50) at 72 h was found to be 16.5 µM; the viability at 72 h, 12.5 µM stood at 60 ± 4%; the viability at 72 h, 25 µM worked out at 23 ± 1%.

The values are drawn from PMC10823475, “Design, Synthesis, and Evaluation of Inhibitors of Hedgehog Acyltransferase” (Journal of Medicinal Chemistry, 2024).
